# Experimental data: PMC11345841, “Exploring 2-Sulfonylpyrimidine Warheads as Acrylamide Surrogates for Targeted Covalent Inhibition: A BTK Story” (Journal of Medicinal Chemistry, 2024)
# Like-named read-outs stand apart in the source and are kept apart here.
# Key:
# [1] = target: T1, ITK (Homo sapiens, UniProt Q08881); experiment: KINOMEscan ScanTK; assay type: binding
# T1 construct: purchased Eurofins DiscoverX KINOMEscan (scanTK)
# T1 sequence (Q08881 1-620): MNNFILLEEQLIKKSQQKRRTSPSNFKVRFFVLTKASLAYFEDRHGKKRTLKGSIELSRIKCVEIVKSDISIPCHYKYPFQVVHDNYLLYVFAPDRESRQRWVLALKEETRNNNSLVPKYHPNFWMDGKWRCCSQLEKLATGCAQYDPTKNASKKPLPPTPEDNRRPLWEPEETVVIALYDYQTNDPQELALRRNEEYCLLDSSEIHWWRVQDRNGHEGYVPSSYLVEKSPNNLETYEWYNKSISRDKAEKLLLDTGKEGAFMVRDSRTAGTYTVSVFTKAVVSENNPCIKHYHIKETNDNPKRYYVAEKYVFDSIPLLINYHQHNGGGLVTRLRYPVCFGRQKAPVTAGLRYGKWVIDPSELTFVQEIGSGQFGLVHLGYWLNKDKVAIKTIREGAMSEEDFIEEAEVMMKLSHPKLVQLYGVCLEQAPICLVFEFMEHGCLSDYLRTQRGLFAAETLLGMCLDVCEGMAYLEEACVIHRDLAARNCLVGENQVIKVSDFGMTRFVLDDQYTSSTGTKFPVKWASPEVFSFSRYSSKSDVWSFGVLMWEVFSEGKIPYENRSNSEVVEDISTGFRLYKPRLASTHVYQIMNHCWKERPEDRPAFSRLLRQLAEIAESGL
# [2] = test system: TMD8 cells; experiment: RNA-seq gene expression; conditions: for Expr Log Ratio: 8d versus Ibrutinib
# [3] = target: T2, KIT(D816H) (Homo sapiens, UniProt P10721, D816H); experiment: KINOMEscan ScanTK; assay type: binding
# T2 construct: purchased Eurofins DiscoverX KINOMEscan (scanTK)
# [4] = target: T3, KIT(D816V) (Homo sapiens, UniProt P10721, D816V); experiment: KINOMEscan ScanTK; assay type: binding
# T3 construct: purchased Eurofins DiscoverX KINOMEscan (scanTK)
# [5] = target: T4, TYK2(JH1domain-catalytic) (Homo sapiens, UniProt P29597); experiment: KINOMEscan ScanTK; assay type: binding
# T4 construct: TYK2(JH1domain-catalytic); purchased Eurofins DiscoverX KINOMEscan (scanTK)
# T4 sequence (P29597 888-1187 limits assumed): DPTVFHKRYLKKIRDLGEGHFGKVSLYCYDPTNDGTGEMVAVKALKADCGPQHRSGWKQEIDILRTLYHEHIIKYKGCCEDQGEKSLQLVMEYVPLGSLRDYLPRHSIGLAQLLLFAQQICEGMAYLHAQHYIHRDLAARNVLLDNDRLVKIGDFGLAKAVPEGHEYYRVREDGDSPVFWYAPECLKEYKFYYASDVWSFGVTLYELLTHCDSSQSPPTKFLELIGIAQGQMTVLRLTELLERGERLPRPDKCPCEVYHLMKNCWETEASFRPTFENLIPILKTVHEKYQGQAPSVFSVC
# [6] = target: T5, FLT3(D835H) (Homo sapiens, UniProt P36888, D835H); experiment: KINOMEscan ScanTK; assay type: binding
# T5 construct: purchased Eurofins DiscoverX KINOMEscan (scanTK)
# T5 sequence (P36888 27-993 D835H): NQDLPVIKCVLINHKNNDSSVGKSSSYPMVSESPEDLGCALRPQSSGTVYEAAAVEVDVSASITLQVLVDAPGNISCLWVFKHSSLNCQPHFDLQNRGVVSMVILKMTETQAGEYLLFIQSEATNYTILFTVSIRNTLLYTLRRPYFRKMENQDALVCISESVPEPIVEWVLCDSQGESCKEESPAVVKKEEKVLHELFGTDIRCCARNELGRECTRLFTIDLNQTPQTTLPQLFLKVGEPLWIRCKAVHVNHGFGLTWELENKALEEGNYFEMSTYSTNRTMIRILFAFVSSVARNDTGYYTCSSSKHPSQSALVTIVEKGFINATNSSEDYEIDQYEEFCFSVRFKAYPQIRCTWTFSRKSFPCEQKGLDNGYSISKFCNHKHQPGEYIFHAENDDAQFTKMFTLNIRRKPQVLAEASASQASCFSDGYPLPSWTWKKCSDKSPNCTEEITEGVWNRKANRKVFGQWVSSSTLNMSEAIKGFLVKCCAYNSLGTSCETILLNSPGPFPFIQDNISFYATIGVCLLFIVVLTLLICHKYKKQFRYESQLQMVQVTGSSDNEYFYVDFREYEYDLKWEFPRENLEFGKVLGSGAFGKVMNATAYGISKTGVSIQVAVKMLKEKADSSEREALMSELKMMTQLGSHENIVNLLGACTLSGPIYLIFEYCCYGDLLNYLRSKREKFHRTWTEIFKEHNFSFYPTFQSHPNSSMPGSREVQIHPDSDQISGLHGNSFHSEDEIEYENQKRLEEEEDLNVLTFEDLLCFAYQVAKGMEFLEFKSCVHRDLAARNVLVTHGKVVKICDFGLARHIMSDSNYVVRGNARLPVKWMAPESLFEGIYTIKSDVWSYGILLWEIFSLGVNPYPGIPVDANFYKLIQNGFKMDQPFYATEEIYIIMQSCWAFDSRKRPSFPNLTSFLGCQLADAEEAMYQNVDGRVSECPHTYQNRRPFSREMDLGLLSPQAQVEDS
# [7] = target: T6, DDR1 (Homo sapiens, UniProt Q08345); experiment: KINOMEscan ScanTK; assay type: binding
# T6 construct: purchased Eurofins DiscoverX KINOMEscan (scanTK)
# [8] = target: T7, FGFR3 (Homo sapiens, UniProt P22607); experiment: KINOMEscan ScanTK; assay type: binding
# T7 construct: purchased Eurofins DiscoverX KINOMEscan (scanTK)
# T7 sequence (P22607 23-806): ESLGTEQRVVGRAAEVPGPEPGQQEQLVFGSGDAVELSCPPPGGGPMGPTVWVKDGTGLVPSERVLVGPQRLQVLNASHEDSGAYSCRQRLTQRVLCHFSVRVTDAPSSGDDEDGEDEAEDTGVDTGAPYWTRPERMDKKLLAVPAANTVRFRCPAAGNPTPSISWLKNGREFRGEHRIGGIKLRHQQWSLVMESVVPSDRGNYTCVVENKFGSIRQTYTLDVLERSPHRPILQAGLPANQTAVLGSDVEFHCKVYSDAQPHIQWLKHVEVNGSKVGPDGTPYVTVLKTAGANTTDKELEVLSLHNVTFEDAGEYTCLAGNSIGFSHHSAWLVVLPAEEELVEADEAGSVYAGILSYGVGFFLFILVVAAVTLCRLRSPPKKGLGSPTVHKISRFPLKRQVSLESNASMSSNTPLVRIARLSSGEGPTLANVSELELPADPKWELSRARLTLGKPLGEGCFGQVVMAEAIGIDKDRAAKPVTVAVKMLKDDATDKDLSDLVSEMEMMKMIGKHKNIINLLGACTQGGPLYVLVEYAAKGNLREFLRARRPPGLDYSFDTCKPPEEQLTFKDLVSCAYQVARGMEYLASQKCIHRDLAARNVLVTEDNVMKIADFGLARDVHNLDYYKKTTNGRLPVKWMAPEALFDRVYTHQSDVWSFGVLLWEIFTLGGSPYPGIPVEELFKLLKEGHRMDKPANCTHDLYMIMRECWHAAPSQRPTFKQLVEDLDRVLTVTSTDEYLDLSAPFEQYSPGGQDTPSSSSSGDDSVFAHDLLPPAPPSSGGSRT
# T6 sequence (Q08345 19-913): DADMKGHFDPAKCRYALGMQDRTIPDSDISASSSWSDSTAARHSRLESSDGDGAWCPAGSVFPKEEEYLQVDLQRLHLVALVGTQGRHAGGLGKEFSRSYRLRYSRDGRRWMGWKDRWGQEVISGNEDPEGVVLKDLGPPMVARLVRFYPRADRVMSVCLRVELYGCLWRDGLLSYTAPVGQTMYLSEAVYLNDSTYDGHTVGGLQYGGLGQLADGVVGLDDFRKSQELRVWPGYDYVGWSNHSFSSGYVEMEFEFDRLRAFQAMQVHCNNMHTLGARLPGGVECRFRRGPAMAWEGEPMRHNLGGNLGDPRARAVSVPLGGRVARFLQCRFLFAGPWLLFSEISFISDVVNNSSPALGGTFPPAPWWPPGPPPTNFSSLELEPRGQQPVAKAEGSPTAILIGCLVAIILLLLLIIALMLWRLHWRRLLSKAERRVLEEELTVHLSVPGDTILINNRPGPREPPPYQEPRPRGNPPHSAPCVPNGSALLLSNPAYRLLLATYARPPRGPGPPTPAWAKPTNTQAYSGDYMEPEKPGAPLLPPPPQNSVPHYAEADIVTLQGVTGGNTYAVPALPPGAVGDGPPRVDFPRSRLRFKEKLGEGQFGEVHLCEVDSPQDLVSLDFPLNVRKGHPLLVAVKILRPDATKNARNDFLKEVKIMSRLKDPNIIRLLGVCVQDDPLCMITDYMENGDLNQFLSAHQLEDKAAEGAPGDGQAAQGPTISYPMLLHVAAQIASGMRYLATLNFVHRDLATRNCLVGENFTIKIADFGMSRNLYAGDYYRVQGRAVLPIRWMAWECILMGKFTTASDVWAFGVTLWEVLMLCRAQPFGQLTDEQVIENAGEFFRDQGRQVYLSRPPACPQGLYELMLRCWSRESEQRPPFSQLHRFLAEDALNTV
# T2 sequence (P10721 26-976 D816H): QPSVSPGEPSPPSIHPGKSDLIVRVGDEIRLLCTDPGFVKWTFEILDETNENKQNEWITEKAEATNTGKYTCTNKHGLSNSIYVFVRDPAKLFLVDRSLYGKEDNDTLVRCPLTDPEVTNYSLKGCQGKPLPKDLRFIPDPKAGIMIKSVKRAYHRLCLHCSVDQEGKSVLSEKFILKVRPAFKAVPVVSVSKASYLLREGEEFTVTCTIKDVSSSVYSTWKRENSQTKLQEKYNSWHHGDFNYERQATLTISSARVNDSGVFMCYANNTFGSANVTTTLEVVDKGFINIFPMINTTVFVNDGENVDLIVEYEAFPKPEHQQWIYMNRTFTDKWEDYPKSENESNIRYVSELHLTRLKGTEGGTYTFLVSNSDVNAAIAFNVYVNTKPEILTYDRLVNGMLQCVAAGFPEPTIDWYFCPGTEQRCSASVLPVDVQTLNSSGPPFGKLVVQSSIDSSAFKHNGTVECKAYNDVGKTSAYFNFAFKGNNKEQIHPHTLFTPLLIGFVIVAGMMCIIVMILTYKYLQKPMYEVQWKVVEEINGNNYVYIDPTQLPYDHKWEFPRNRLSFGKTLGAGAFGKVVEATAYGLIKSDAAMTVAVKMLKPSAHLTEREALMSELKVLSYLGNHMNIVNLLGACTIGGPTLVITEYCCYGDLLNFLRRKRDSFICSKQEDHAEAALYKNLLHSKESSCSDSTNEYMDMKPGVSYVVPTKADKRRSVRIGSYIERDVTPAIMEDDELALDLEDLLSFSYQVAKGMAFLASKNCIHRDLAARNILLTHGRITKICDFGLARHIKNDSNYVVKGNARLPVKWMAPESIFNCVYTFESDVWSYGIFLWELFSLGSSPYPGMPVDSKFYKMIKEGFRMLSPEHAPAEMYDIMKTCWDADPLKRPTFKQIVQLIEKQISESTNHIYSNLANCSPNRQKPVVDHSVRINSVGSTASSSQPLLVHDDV
# T3 sequence (P10721 26-976 D816V): as the sequence (P10721 26-976 D816H) above, with H791V counted along it
compound,measurement,setting,value
"CNC(=O)c1cnc(S(C)(=O)=O)nc1N1CCCC(n2nc(-c3ccc(Oc4ccccc4)cc3)c3c(N)ncnc32)C1 (stereo not drawn) [Compound 8d, 4-(3-(4-Amino-3-(4-phenoxyphenyl)-1H-pyrazolo[3,4-d]pyrimidin-1-yl)piperidin-1-yl)-N-methyl-2-(methylsulfonyl)pyrimidine-5-carboxamide]",difference in %Control versus compound Ib at 1 µM,"[1]; @1000nM, ITK",66%
same,remaining binding at 1 µM,"[1]; @1000nM, ITK, read-out: %Control",81%
same,remaining binding at 1 µM,"[1]; ITK, read-out: %Control @1000nM",81%
same,inhibition at 1 µM,"[1]; ScanTK, 1 μM",19%
same,Expr Log Ratio,[2]; ACTN4,0.022
same,Expr Log Ratio,[2]; ACVR1C,-0.029
same,Expr Log Ratio,[2]; APC,0.064
same,Expr Log Ratio,[2]; APOC1,-0.164
same,Expr Log Ratio,[2]; ARHGAP31,0.01
same,Expr Log Ratio,[2]; ARNT2,0.044
same,Expr Log Ratio,[2]; AURKA,-0.004
same,Expr Log Ratio,[2]; BLOC1S5,-0.004
same,Expr Log Ratio,[2]; BMPR2,0.081
same,Expr Log Ratio,[2]; BRCA1,0.248
same,Expr Log Ratio,[2]; BRD7,0.035
same,Expr Log Ratio,[2]; BTRC,0.281
same,Expr Log Ratio,[2]; CD80,-0.429
same,Expr Log Ratio,[2]; CDKN1A,-0.127
same,Expr Log Ratio,[2]; COL1A1,-0.248
same,Expr Log Ratio,[2]; CREBZF,-0.251
same,Expr Log Ratio,[2]; CREM,-0.036
same,Expr Log Ratio,[2]; CTR9,0.099
same,Expr Log Ratio,[2]; CYB561A3,-0.04
same,Expr Log Ratio,[2]; DEF6,0.017
same,Expr Log Ratio,[2]; DNM1L,0.002
same,Expr Log Ratio,[2]; DTNBP1,0.278
same,Expr Log Ratio,[2]; DTX1,-0.178
same,Expr Log Ratio,[2]; ECM1,0.54
same,Expr Log Ratio,[2]; EHD1,-0.044
same,Expr Log Ratio,[2]; EIF2AK4,0.093
same,Expr Log Ratio,[2]; EIF2B5,-0.104
same,Expr Log Ratio,[2]; ELAVL1,-0.071
same,Expr Log Ratio,[2]; ESR1,-0.045
same,Expr Log Ratio,[2]; ETS1,0.064
same,Expr Log Ratio,[2]; FECH,0.061
same,Expr Log Ratio,[2]; FGF2,0.272
same,Expr Log Ratio,[2]; FGFR4,-0.062
same,Expr Log Ratio,[2]; FTO,-0.134
same,Expr Log Ratio,[2]; GLIS2,-0.228
same,Expr Log Ratio,[2]; GNB1,0.033
same,Expr Log Ratio,[2]; GNB2,-0.086
same,Expr Log Ratio,[2]; GPI,-0.003
same,Expr Log Ratio,[2]; GPNMB,0.582
same,Expr Log Ratio,[2]; GSTP1,-0.086
same,Expr Log Ratio,[2]; H1-2,-0.09
same,Expr Log Ratio,[2]; HDAC1,-0.011
same,Expr Log Ratio,[2]; HDAC8,-0.281
same,Expr Log Ratio,[2]; HNRNPAB,-0.136
same,Expr Log Ratio,[2]; HSF2,-0.15
same,Expr Log Ratio,[2]; HTATIP2,0.03
same,Expr Log Ratio,[2]; IL1A,0.332
same,Expr Log Ratio,[2]; ING1,-0.221
same,Expr Log Ratio,[2]; KDM6B,-0.137
same,Expr Log Ratio,[2]; LOX,-0.113
same,Expr Log Ratio,[2]; LOXL2,0.149
same,Expr Log Ratio,[2]; MAPK8,-0.028
same,Expr Log Ratio,[2]; MAPK9,0.146
same,Expr Log Ratio,[2]; MAPKAP1,-0.077
same,Expr Log Ratio,[2]; MDM4,-0.082
same,Expr Log Ratio,[2]; MED1,-0.016
same,Expr Log Ratio,[2]; MESP1,-0.242
same,Expr Log Ratio,[2]; MESP2,-0.023
same,Expr Log Ratio,[2]; MFN2,-0.162
same,Expr Log Ratio,[2]; MGAT3,-0.275
same,Expr Log Ratio,[2]; MGAT5,0.29
same,Expr Log Ratio,[2]; MPZ,-0.137
same,Expr Log Ratio,[2]; MTA3,-0.001
same,Expr Log Ratio,[2]; NCL,-0.053
same,Expr Log Ratio,[2]; NCOA2,0.045
same,Expr Log Ratio,[2]; NDRG2,0.057
same,Expr Log Ratio,[2]; NFIA,0.254
same,Expr Log Ratio,[2]; NFYB,0.006
same,Expr Log Ratio,[2]; NORAD,-0.057
same,Expr Log Ratio,[2]; NR1H3,0.155
same,Expr Log Ratio,[2]; OIP5-AS1,0.071
same,Expr Log Ratio,[2]; PADI2,0.089
same,Expr Log Ratio,[2]; PCGF2,0.108
same,Expr Log Ratio,[2]; PDCD4,0.188
same,Expr Log Ratio,[2]; PIAS3,0.008
same,Expr Log Ratio,[2]; POR,-0.13
same,Expr Log Ratio,[2]; PPIA,0.046
same,Expr Log Ratio,[2]; PTAFR,0.465
same,Expr Log Ratio,[2]; PTP4A3,-0.295
same,Expr Log Ratio,[2]; PTPN2,0.048
same,Expr Log Ratio,[2]; RALA,-0.18
same,Expr Log Ratio,[2]; REL,-0.144
same,Expr Log Ratio,[2]; RELA,-0.006
same,Expr Log Ratio,[2]; RNASEL,0.378
same,Expr Log Ratio,[2]; RPA1,0.039
same,Expr Log Ratio,[2]; RPS6KA5,-0.015
same,Expr Log Ratio,[2]; SCX,0.154
same,Expr Log Ratio,[2]; SDCBP,0.02
same,Expr Log Ratio,[2]; SDHB,0.024
same,Expr Log Ratio,[2]; SP3,-0.093
same,Expr Log Ratio,[2]; SP100,0.189
same,Expr Log Ratio,[2]; SPINT1,-0.109
same,Expr Log Ratio,[2]; ST6GAL1,-0.01
same,Expr Log Ratio,[2]; STS,0.181
same,Expr Log Ratio,[2]; TGFBR3,0.172
same,Expr Log Ratio,[2]; TGS1,0.171
same,expression of AHR target gene CYP1A1,"[2]; TMD8, 1 μM, 8 h",significantly downregulated
same,number of genes unchanged vs DMSO,"[2]; TMD8, 1 μM, 8 h",14389 genes
same,number of genes unchanged vs ibrutinib,"[2]; TMD8, 1 μM, 8 h",14881 genes
same,number of genes reduced vs DMSO,"[2]; TMD8, 1 μM, 8 h, FDR < 0.01, log2FC < -0.5",274 genes
same,number of genes increased vs DMSO,"[2]; TMD8, 1 μM, 8 h, FDR < 0.01, log2FC > 0.5",384 genes
same,number of genes increased vs ibrutinib,"[2]; TMD8, 1 μM, 8 h, p-value <0.01",105 genes
same,number of genes reduced vs ibrutinib,"[2]; TMD8, 1 μM, 8 h, p-value <0.01",61 genes
same,Expr Log Ratio,[2]; TNF,-0.16
same,Expr Log Ratio,[2]; TNFRSF11A,0.052
same,Expr Log Ratio,[2]; TP53,-0.035
same,Expr Log Ratio,[2]; YWHAZ,0.016
same,remaining binding at 1 µM,"[3]; @1000nM, read-out: %Control",50%
same,remaining binding at 1 µM,[3]; read-out: %Control @1000nM,50%
same,remaining binding at 1 µM,"[4]; @1000nM, read-out: %Control",84%
same,remaining binding at 1 µM,[4]; read-out: %Control @1000nM,84%
same,remaining binding at 1 µM,"[5]; @1000nM, read-out: %Control",100%
same,remaining binding at 1 µM,[5]; read-out: %Control @1000nM,100%
same,difference in %Control from compound Ib at 1 µM,[6]; @1000nM,47%
same,remaining binding at 1 µM,"[6]; @1000nM, read-out: %Control",83%
same,remaining binding at 1 µM,[6]; read-out: %Control @1000nM,83%
same,difference in %Control from compound Ib at 1 µM,[7]; @1000nM,-14%
same,remaining binding at 1 µM,"[7]; @1000nM, read-out: %Control",64%
same,remaining binding at 1 µM,[7]; read-out: %Control @1000nM,64%
same,difference in %Control versus compound Ib at 1 µM,[8]; @1000nM,51%
same,remaining binding at 1 µM,"[8]; @1000nM, read-out: %Control",99%
same,remaining binding at 1 µM,[8]; read-out: %Control @1000nM,99%
